Assay results: patent publication US20230331817A1 (The Regents of the University of California, priority 2020, published 2023)
Where two headings read alike, the source gives them in different places. One block for each compound: values may come before it.

Legend:
[1] = tested on: HUVEC; type: cell-based, human
Experimental: (§1) Resazurin reduction assay (Fisher Scientific) was used to evaluate the potential cytotoxicity of antifibrinolytic agents toward primary human endothelial cells and skin fibroblasts. Phosphate buffer that was used to dissolve the samples was included as negative control. The assay is based on reduction of the non-fluorescent dye resazurin, to the highly fluorescent resorufin by viable cells. […] Briefly, cells in 96-well cell culture plates were treated with different concentrations of antifibrinolytic compounds (as described above). After 24 hours resazurin reagent was added to each well and the plates were incubated at 37° C. for 4 hours. Fluorescence was measured by the FLUOstar Omega Microplate Reader (BMG Labtech) using an excitation wavelength of 544 nm and an emission wavelength of 590 nm. Each assay was done in duplicate, with three replicates each. The viability was evaluated based on comparison with untreated cells.

[2] = rats and dogs; cited from earlier work
[3] = tested on: primary human dermal skin fibroblasts; assay: Caspase 3/7 assay, skin fibroblasts; type: cell-based; settings: 24 hours; 30 μM KD1TM, 30 μM BPTI, 60 mM EACA, 30 mM TXA
Experimental: The influence of antifibrinolytic agents on apoptosis in cells was detected using the Caspase-Glo 3/7 Assay kit (Promega). Caspase 3 and 7 are activated in cells that undergo apoptosis. The assay provides a luminogenic substrate for caspase 3 and 7. Enzymatic activity leads to luminescence, which is proportional to the amount of caspase activity present. Cells were seeded in 96-well plates and treated with antifibrinolytic agents or phosphate buffer (solvent control). Taxol was included as positive control. After 24 hours of treatment, caspase reagent was added to each well, mixed and incubated for 1 hour at room temperature. Luminescence was measured using the FLUOstar Omega Microplate Reader (BMG Labtech).

[4] = tested on: primary human dermal skin fibroblasts; assay: Resazurin reduction (alamarBlue) viability assay, skin fibroblasts; type: cell-based
Experimental: as §1

[5] = humans; cited from earlier work
[6] = target: DIP-δplasmin; assay: Surface plasmon resonance binding to DIP-δplasmin
Experimental: Active-site blocked δplasmin was generated by treating δplasmin with equal volumes of 1 M Tris-HCl, pH 8.0 and 1 M DFP (final concentration of 1 mM DFP) at room temperature for 20 minutes, followed by an incubation on ice for several hours. Additional equal volumes of 1M Tris-HCl, pH 8.0 and 1M DFP (final concentration of 2 mM) were added and the reaction was incubated at room temperature for 20 minutes and then over night at 4° C. The DFP inhibited Splamsin (DIP-δplasmin) was dialyzed against 20 mM HEPES pH 7.5, containing 150 mM NaCl and assayed for residual activity using S-2251 synthetic substrate hydrolysis. Based upon the residual activity, >99% of the δplasmin was inactivated.
(§2) Binding studies were performed on a Biacore T100 flow biosensor (Biacore, Uppsala, Sweden) at 25° C. DIP-δplasmin (˜98% purity using SDS-PAGE) or tPA (>98% purity using SDS-PAGE) was immobilized on carboxymethyl-dextran flow cell (CM5 sensor chips, GE Healthcare) using amine-coupling chemistry. Flow cell surfaces were activated with a mixture of 1-ethyl-3-(3-dimethylaminopropyl) carbodiimide and N-hydroxysulfosuccinimide for 5 min (flow rate 10 μl/min), after which the protein (20 μg/ml in 10 mM sodium acetate, pH 5.5) was injected onto the surface. Unreacted sites were blocked for 5 minutes with 1 M ethanolamine. The analyte KD1-Y11T/L17R-KT (100 to 2000 nM) was perfused through flow cells in HBS-P buffer (20 mM HEPES, pH 7.4, 100 mM NaCl, 0.005% (v/v) P20) at 10 μl/minutes for 6 minutes. After changing to HBS-P buffer without the protein, analyte dissociation was monitored for 10 min. Flow cells were regenerated with HBS-P containing 20 mM EACA. Data were corrected for nonspecific binding by subtracting signals obtained with the analyte infused through a flow cell without the coupled protein. Binding was analyzed with BIAevaluation software (Biacore) using a 1:1 binding model. Kd values were calculated from the quotient of the derived dissociation (kd) and association (ka) rate constants.

[7] = target: T1, human plasmin (Homo sapiens, UniProt P00747); assay: Stability study: plasmin inhibition after storage; type: biochemical; settings: 0.59 mg/ml kept at 4° C., room temperature and 37° C. for a week
T1 construct: purchased Hematologic Technologies Inc (Essex Junction, VT)
Experimental: In stability studies, the KD1Y11T/R15K/L17R-KT sample (0.59 mg/ml) was kept at 4° C., at room temperature and at 37° C. for a week and its plasmin inhibition was studied each day. […] Reactions were carried out in TBS/BSA and 2 mM calcium. Human plasmin was incubated with various concentrations of rHuKD1-TM for 1 hour at room temperature in a 96-well microtiter plate. Synthetic substrate for plasmin was then added to a final concentration of 1 KM, and residual amidolytic activity was measured in a kinetic microplate reader (Molecular Devices). In Table 7 below, the apparent inhibition constant, Ki* was determined using the nonlinear regression data analysis program. Data are analyzed using an equation for a tight-binding inhibitor and Ki values are obtained by correcting for the effect of substrate concentration.

[8] = target: T2, Plasma kallikrein (pKLK) (Homo sapiens, UniProt P03952); assay: Protease inhibition assay, plasma kallikrein; type: biochemical
T2 construct: Plasma kallikrein (pKLK) was from Enzyme Research Laboratories; purchased Enzyme Research Laboratories (South Bend, IN)
Experimental: (§3) All reactions were carried out in TBS, pH 7.5 (50 mM Tris-HCL, pH 7.5, containing 100 mM NaCl), containing 0.1 mg bovine serum albumin/ml (TBS/BSA) and 2 mM Ca2+(TBS/BSA/Ca2+, pH 7.5). […] The inhibition constant, K* was determined using the nonlinear regression data analysis program Grafit.
(§4) Ki values were obtained by correcting for the effect of substrate according to Beith (38), using equation 2, where (S) is substrate concentration and KM is specific for each enzyme.

[9] = tested on: tPA-induced plasma clot fibrinolysis; assay: Fibrinolysis (clot lysis) assay in normal pooled plasma; type: biochemical; settings: human NPP
Experimental: The method of Sperzel and Huetter (40) was followed with minor modifications as outlined earlier (32,41). Briefly, IIa was used to initiate fibrin formation in NPP and the lysis of the formed clot (fibrinolysis) was induced by simultaneous addition of tPA. Clot formation and lysis were monitored with a Molecular Devices microplate reader (SPECTRAmax 190) measuring the optical density at 405 nm. […] Two hundred twenty-five μL of this mixture was then added to 25 μL IIa and tPA in TBS/BSA containing 25 mM CaCl2). In the 250 μL final volume, concentration of IIa was 0.15 μg/ml and that of tPA was 1 μg/ml. Under control conditions (zero tPA and zero test compound), OD405 increased immediately indicating clotting followed by an extremely slow decrease representing fibrinolysis. As clotting was almost complete after 5 minutes, fibrinolysis induced by tPA was evaluated as a relative decrease of OD405 up to 60 minutes.
Addition of thrombin (IIa) to human normal pooled plasma (NPP) caused fibrin formation, which is reflected by the increase in OD405 (black curve, FIGS. 3A and 3B). Simultaneous addition of tPA caused initial clot formation followed by dissolution of fibrin induced by tPA-mediated conversion of plasminogen to plasmin (black curve with closed circles, FIGS. 3A and 3B); the midpoint of fibrinolysis was ˜8 min in each case. Both antifibrinolytic agents inhibited fibrinolysis in a dose-dependent manner.

[10] = tested on: tPA-induced lysis of clot formed in whole blood; assay: Thromboelastography, tPA-induced clot lysis in whole blood; type: biochemical
Experimental: The effect of different concentrations of KD1-Y11T/R15K/L17R-KCOOH (KD1TM) on fibrinolysis was evaluated with thromboelastography (TEG) using a TEG 5000 Thrombelastograph (Haemonetics Corp, Braintree, MA, USA). Each clot formation/lysis assay contained 300 μL of citrated whole blood, thrombin (0.15 μM, final concentration), tPA (2 nM, final concentration), CaCl2) (10 mM, final concentration) and various concentrations of KD1TM in TBS/BSA (50 mM Tris-HCl, 100 mM NaCl, containing 0.1 mg bovine serum albumin/mL) to make the final volume to 360 μL. Thrombin, tPA and CaCl2) were added last to initiate simultaneous clotting and fibrinolysis. […] Each experiment was performed at least 60 min after the maximal amplitude was reached to establish the LY60 value. TEG Analytical Software (version 4.2.3; Haemonetics Corporation, Braintree, MA, USA) was used to calculate the time to clot initiation (R), maximal clot strength (maximal amplitude (MA), which was directly related to the shear elastic modulus strength, G), and percent lysis 60 min after MA (LY60).

[11] = target: T3, tPA (Homo sapiens, UniProt P00750); assay: Surface plasmon resonance binding to tPA; settings: 25° C; 1:1 binding model
T3 construct: purchased Genentech (South San Francisco, CA)
Experimental: as §2

[12] = target: T4, human FXIa (Homo sapiens, UniProt P03951); assay: Protease inhibition assay, factor XIa; type: biochemical; settings: up to 3 μM inhibitor; 1 nM FXIa; triplicate
T4 construct: Purified human FXIa, thrombin (IIa) and plasmin were purchased; purchased Hematologic Technologies Inc (Essex Junction, VT)
Experimental: as §3, §4

[13] = tested on: mouse injury models; settings: liver laceration model and tail amputation model; cited from earlier work
[14] = target: T5, FVIIa/sTF (Homo sapiens, UniProt P08709); assay: Protease inhibition assay, FVIIa/soluble tissue factor; type: biochemical; settings: up to 3 μM inhibitor; 20 nM FVIIa/sTF; triplicate
T5 construct: human factor VIIa (FVIIa) was prepared as described previously (34)
Experimental: as §3, §4

[15] = tested on: plasmin induced lysis of clot formed in whole blood; assay: Thromboelastography, plasmin induced clot lysis in whole blood; type: biochemical, human
Experimental: Plasmin and CaCl2) were added last to initiate simultaneous clotting and fibrinolysis. […] The thromboelastograph was calibrated each day and each inhibitor concentration was tested in duplicate. TEG Analytical Software (version 4.2.2; Haemonetics Corporation, Braintree, MA) was used to calculate the time to clot initiation (R), maximal clot strength (maximal amplitude (MA), which was directly related to the shear elastic modulus strength, G), and percent lysis 60 minutes after MA (LY60) (42).

[16] = NHB + […] plasmin, inhibitor 5 μM

T3 sequence (P00750 36-562): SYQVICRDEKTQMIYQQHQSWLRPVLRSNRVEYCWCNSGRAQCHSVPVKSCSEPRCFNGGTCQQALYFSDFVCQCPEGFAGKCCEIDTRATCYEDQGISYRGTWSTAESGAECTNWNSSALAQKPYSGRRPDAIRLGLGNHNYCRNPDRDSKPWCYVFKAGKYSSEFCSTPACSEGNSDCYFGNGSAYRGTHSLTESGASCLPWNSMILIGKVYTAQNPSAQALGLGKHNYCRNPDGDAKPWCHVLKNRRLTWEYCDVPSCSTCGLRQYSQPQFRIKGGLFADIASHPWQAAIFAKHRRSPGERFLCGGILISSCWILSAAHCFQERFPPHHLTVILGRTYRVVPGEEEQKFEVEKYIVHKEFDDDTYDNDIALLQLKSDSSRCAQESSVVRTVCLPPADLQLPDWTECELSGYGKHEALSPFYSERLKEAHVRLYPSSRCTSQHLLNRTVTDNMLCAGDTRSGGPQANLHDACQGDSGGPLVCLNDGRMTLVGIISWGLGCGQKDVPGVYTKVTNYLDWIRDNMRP
T2 sequence (P03952 20-390 limits assumed): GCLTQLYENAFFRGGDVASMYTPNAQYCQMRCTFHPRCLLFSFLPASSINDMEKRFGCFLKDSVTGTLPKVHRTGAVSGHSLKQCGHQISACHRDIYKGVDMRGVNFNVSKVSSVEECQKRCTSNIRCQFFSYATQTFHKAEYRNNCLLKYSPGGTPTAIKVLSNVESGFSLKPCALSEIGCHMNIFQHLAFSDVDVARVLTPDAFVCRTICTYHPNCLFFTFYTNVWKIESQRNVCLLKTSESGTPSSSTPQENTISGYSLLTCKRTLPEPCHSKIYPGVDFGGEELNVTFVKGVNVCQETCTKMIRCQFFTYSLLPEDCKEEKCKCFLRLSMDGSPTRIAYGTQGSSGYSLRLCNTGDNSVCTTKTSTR
T2 sequence (P03952 391-638 limits assumed): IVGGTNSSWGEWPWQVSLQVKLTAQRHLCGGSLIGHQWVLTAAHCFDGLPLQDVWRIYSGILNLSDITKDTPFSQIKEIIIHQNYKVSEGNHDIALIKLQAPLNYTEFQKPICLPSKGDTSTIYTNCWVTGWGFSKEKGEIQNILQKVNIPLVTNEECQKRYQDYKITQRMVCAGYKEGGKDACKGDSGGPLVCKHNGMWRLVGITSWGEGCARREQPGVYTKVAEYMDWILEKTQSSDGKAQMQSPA
T1 sequence (P00747 97-580 limits assumed): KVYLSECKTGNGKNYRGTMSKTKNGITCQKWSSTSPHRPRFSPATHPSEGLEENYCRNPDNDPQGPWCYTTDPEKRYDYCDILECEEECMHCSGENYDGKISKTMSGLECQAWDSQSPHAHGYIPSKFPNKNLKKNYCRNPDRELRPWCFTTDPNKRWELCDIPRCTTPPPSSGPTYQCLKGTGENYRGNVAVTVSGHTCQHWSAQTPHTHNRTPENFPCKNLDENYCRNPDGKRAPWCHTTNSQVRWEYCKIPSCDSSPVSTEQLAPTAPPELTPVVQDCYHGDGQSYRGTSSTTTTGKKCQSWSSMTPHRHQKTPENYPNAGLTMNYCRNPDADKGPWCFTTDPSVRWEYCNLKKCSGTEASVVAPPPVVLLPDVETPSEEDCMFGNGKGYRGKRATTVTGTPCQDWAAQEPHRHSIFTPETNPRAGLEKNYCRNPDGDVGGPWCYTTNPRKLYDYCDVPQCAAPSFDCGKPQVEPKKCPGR
T1 sequence (P00747 581-810 limits assumed): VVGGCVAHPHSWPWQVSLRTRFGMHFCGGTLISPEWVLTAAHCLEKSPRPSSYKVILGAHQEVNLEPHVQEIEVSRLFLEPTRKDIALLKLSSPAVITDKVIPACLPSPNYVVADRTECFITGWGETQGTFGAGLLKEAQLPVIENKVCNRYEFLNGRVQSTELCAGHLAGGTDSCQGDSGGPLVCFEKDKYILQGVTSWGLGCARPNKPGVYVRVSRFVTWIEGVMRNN
T4 sequence (P03951 19-387 limits assumed): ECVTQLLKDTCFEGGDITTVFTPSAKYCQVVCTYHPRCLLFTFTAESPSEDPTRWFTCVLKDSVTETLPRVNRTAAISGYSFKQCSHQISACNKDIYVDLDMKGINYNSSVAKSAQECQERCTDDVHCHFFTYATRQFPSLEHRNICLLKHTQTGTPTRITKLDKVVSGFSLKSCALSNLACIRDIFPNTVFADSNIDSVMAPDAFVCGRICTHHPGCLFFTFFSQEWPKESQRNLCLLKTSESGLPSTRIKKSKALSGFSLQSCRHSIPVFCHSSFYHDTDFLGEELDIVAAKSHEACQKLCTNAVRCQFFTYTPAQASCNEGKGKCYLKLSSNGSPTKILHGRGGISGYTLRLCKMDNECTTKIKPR
T4 sequence (P03951 388-625 limits assumed): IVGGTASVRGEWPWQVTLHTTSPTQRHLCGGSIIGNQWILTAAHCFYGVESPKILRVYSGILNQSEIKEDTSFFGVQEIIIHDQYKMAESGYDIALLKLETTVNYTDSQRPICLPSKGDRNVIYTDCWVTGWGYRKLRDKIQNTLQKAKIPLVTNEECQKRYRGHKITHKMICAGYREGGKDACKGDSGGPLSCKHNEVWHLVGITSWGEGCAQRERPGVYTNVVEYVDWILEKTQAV
T5 sequence (P08709 213-466 limits assumed): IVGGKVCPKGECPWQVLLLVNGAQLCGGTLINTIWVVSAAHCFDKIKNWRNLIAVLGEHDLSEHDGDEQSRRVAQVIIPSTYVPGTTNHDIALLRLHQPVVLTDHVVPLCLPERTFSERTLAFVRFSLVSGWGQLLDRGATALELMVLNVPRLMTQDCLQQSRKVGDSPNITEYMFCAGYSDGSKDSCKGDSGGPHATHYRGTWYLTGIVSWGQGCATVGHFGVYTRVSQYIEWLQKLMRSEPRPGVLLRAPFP
T5 sequence (P08709 61-212 limits assumed): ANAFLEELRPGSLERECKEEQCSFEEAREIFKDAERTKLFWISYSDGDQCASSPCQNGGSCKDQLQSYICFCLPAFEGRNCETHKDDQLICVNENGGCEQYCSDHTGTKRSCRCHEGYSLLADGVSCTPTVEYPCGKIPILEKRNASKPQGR
T5 sequence (P13726 33-251 partner limits assumed): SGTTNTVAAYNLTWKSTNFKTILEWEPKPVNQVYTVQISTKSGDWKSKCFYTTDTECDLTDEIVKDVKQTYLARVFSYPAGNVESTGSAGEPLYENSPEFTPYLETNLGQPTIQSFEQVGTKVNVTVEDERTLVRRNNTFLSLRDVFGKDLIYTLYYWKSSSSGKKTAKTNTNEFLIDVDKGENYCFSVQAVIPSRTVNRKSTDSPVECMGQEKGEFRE

Compound: NC[C@H]1CC[C@H](C(=O)O)CC1 [TXA, tranexamic acid]
HUVEC viability (FIG. 4) [1]: not significantly different from the untreated cells
plasma half-life [2]: ~2 h
Apoptosis, caspase-3/7 activity, skin fibroblasts (FIG. 6) [3]: not in fibroblasts
Cell viability, primary human skin fibroblasts (Example 1) ([4]; 24 hours, KD1-Y11T/L17R-KT and aprotinin 0.1 μM-30 μM, EACA 1-60 mM, TXA 0.2-30 mM): equally unchanged
Fibroblast cell viability (FIG. 5) ([4]; 24 hours, indicated concentrations, p>0.05): not significantly different from the untreated cells
half-life [5]: ~2 h

Kd ([6]; read-out: Affinity of binding to the plasmin kringle domain): ~0.04 µM
Concentration until which kallikrein inhibition is not observed [8]: 25 µM
Compound: KD1Y11T/R15K/L17R-KT: 60-residue triple mutant of Kunitz domain1 of human TFPI-2, SEQ ID NO: 1, C-terminal IEK, expressed in Pichia (NAEICLLPLDTGPCKARLLRYYYDRYTQSCRQFLYGGCEGNANNFYTWEACDDACWRIEK)
Stability of plasmin inhibition on storage [7]: plasmin inhibitory properties are not altered
HUVEC viability (FIG. 4) [1]: not significantly different from the untreated cells
Fibroblast cell viability (FIG. 5) [4]: not significantly different from the untreated cells
Fibrinolysis midpoint (Example 2) ([9]; 0.5 μM inhibitor + tPA, ˜8 min without inhibitor): ~15 min
Effect on tPA induced fibrinolysis (Example 2) ([9]; 3 μM inhibitor + tPA): completely prevented tPA induced fibrinolysis
Effect on clot formation or fibrinolysis in the absence of tPA (Example 2) ([9]; 3 μM inhibitor, no tPA): had no effect on clot formation or fibrinolysis
G ([10]; 2 nM tPA + 2 μM KD1TM, […] thrombin): 3525.4 dyn/cm^2
MA ([10]; 2 nM tPA + 4 μM KD1TM, […] thrombin): 44.2 mm
Clot strength MA restored, relative to blood without tPA ([10]; 2 nM tPA, 4 μM KD1TM): 98%
G restored, relative to blood without tPA ([10]; 2 nM tPA, 4 μM KD1TM): 96%

koff, DIP-δplasmin ([6]; 25° C, 1:1 binding model): 7.13±0.9×10^−5 s^−1
kon, DIP-δplasmin ([6]; 25° C, 1:1 binding model): 1.49±0.3×10^3 M^−1s^−1
Kd ([6]; 25° C, 1:1 binding model, read-out: Kd, DIP-δplasmin (kringle domain of plasminogen/plasmin)): ~0.05 µM
Kd [11]: ~0.035 µM
koff, tPA [11]: 1.05±0.7×10^−4 s^−1
kon, tPA [11]: 2.91±0.4×10^3 M^−1s^−1
Inhibition profile with FXIa [12]: No inhibition was observed
Inhibition profile with pKLK ([8]; up to 3 μM inhibitor, 1 nM pKLK, triplicate): No inhibition was observed
Inhibition profile with FVIIa/sTF [14]: No inhibition was observed
Compound: KD1-Y11T/L17R-KT: 60-residue double mutant (Y11T/L17R) of Kunitz domain1 of human TFPI-2 with C-terminal IEK (NAEICLLPLDTGPCRARLLRYYYDRYTQSCRQFLYGGCEGNANNFYTWEACDDACWRIEK)
Prevention of blood loss [13]: successful in preventing blood loss
G [15, 16]: ~3004 dyn/cm^2
LY60 [15, 16]: ~12%
Clot strength MA restored, relative to blood without plasmin ([15]; […] plasmin, inhibitor 5 μM): ~80%
G restored, relative to blood without plasmin ([15]; […] plasmin, inhibitor 5 μM): ~65%
G restored, relative to blood without plasmin ([15]; […] plasmin, inhibitor 7.5 μM): ~70%
MA restored, relative to blood without plasmin ([15]; […] plasmin, inhibitor 7.5 μM): ~83%
Max OD405 ([9]; 0.5 μM inhibitor + tPA): 1.54 ± 0.14
OD405 at 60 min ([9]; 0.5 μM inhibitor + tPA): 0.85 ± 0.13
Fibrinolysis midpoint time ([9]; 1.0 μM inhibitor + tPA): 27 ± 1.1 min
Max OD405 ([9]; 1.0 μM inhibitor + tPA): 1.54 ± 0.11
OD405 at 60 min ([9]; 1.0 μM inhibitor + tPA): 0.84 ± 0.12
Fibrinolysis midpoint time ([9]; 2.0 μM inhibitor + tPA): >60 min
Max OD405 ([9]; 2.0 μM inhibitor + tPA): 1.58 ± 0.09
OD405 at 60 min ([9]; 2.0 μM inhibitor + tPA): 1.35 ± 0.06
Fibrinolysis midpoint time ([9]; 3.0 μM inhibitor + tPA): >60 min
Max OD405 ([9]; 3.0 μM inhibitor + tPA): 1.71 ± 0.10
OD405 at 60 min ([9]; 3.0 μM inhibitor + tPA): 1.57 ± 0.08
OD405 at 60 min ([9]; […] inhibitor + tPA): 0.86 ± 0.15
